Reference: publication PMC11758220, “Identification of a Privileged Scaffold for Inhibition of Sterol Transport Proteins through the Synthesis and Ring Distortion of Diverse, Pseudo-Natural Products” (ACS Central Science, 2025)
pKd: −log10 of the molar value.

Experiments:
STARD5 = biological target: T1, STARD5 (Homo sapiens, UniProt Q9NSY2); test: Differential scanning fluorimetry (DSF), STARD5; assay type: binding; settings: for STARD5 (DSF) ΔTm / ΔTm at 10 µM: single dose, Dose = 10 µM
T1 construct: STARD5(6-213); host or cells: E. coli BL21(DE3)
T1 sequence (Q9NSY2 6-213): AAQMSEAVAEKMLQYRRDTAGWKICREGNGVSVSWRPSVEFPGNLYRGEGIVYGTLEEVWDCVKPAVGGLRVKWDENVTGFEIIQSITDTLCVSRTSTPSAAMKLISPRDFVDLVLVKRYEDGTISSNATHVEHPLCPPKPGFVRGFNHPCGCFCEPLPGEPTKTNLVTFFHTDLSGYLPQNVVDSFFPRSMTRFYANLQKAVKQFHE
Source text: (§1) Protein expression constructs
(§2) Human ASTER domains of Aster-A(359-547), -B(364-552) and -C(318-504) were subcloned into a pGEX-6p-2rbs vector, thus introducing the cloning artifact ‘GPLGS’.3 The pGEX-6P-1-GST-OSBP(377- […]
(§3) a gift from James H. Hurley (University of California).4 The pHIS_2His6_Thrombin_STARD4(2-205;C75S) plasmid was a gift from Young Jun Im (Chonnam National University).5 STARD5A was a gift from Nicola Burgess-Brown (Addgene plasmid #42392; http://n2t.net/addgene:42392; […]
(§4) Protein expression and purification […]
(§5) vectors including an N-terminal PreScission-cleavable glutathione S-transferase (GST)-tag were expressed in Escherichia coli (E. coli) OverExpress C41 in Terrific Broth (TB) medium for 16 h at 18 °C after the induction with 0.1 mM isopropyl β-D-1-thiogalactopyranoside (IPTG). Cells were harvested at 3500 × g for 15 minutes and lysed by sonication in buffer containing 50 mM HEPES pH 7.5, 300 mM NaCl, 10 %v/v glycerol, 5 mM dithiothreitol (DTT), 0.1 %v/v Triton X-100 and protease inhibitor mix HP plus (Serva). The lysate was purified by affinity chromatography on a GSTrap FF column (Cytiva) using an ÄKTA Start (Cytiva) in buffer containing 50 mM HEPES pH 7.5, 300 mM NaCl, 10 %v/v glycerol, 5 mM DTT and 0.01 %v/v Triton X-100. The GST-tag was cleaved overnight on the column at 4 °C. The Aster sterol binding domains were further purified by size-exclusion chromatography (SEC) on a HiLoad 16/600 Superdex 75 pg (Cytiva) in buffer containing 20 mM HEPES pH 7.5, 300 mM NaCl, 10 %v/v […]
(§6) STARD5(6-213) harboring an N-terminal His6-Tag were expressed in E. coli BL21(DE3) in Luria-Bertani Broth (LB) medium for approximately 16 h at 18 °C after induction with 0.15 mM IPTG. Cells were harvested at 3500 × g for 15 minutes and lysed by sonication in buffer containing 50 mM HEPES pH 7.5, 150 mM NaCl, 5 %v/v glycerol, 5 mM DTT, 0.1 %v/v Triton X -100 and ethylenediaminetetraacetic acid (EDTA)-free protease inhibitor cocktail (Sigma-Aldrich). The cleared lysate was purified by affinity chromatography on a Ni-NTA Superflow Cartridge (Qiagen) using an ÄKTA Start (Cytiva) in buffer containing 50 mM HEPES pH 7.5, 150 mM NaCl, 5 %v/v glycerol, 5 mM DTT. START domains were eluted by using elution buffer containing 50 mM HEPES pH 7.5, 150 mM NaCl, 5 %v/v glycerol, 5 mM DTT and 500 mM imidazole. Proteins were further purified by SEC on a HiLoad 16/600 Superdex 75 pg (Cytiva) in buffer containing 20 mM HEPES pH 7.5, 150 mM NaCl, 5 %v/v glycerol and 2 mM DTT.
(§7) The ORP domain of human OSBP(377-807) in the pGEX-6p-1 vector with an N-terminal PreScission-cleavable GST-tag was expressed in E. coli OverExpress C41 in LB medium for 16 h at 18 °C after induction with 0.1 mM IPTG. Cells were harvested at 3500 × g for 15 minutes and lysed by sonication in buffer containing 20 mM HEPES pH 7.5, 300 mM NaCl, 10 %v/v glycerol, 5 mM DTT, 0.1 %v/v Triton X-100 and EDTA-free protease inhibitor cocktail (Sigma-Aldrich). The cleared lysate was purified by affinity chromatography on a GSTrap HF column (Cytiva) using an ÄKTA Start (Cytiva) in buffer containing 20 mM HEPES pH 7.5, 300 mM NaCl, 10 %v/v glycerol, 5 mM DTT. OSBP(377 -807) was eluted by using elution buffer containing 20 mM HEPES pH 7.5, 300 mM NaCl, 10 %v/v glycerol, 5 mM DTT and 10 mM reduced glutathione. Proteins were further purified by SEC on a HiLoad 16/600 Superdex 75 pg (Cytiva) using an ÄKTA Explorer (Cytiva) in buffer containing 20 mM HEPES pH 7.5, 150 mM NaCl, 10 %v/v glycerol and 2 mM DTT.
(§8) The ORP domains of human ORP1(534-950) in pET24b(+) and ORP2(49-480) in the pET24b(+) vector including an N-terminal His6-Tag were expressed in E. coli BL21(DE3) in TB medium for approximately 16 h at 18 °C after induction with 0.1 mM IPTG. Cells were collected at 3500 × g for 15 minutes and lysed by sonification in buffer containing 10 mM Tris-HCl pH 8, 300 mM NaCl, 5 % glycerol, 2 mM DTT, 0.1 % Triton X-100 and EDTA-free protease inhibitor cocktail (Sigma-Aldrich). The cleared […]

ORP1 = biological target: T2, ORP1 (Homo sapiens, UniProt Q9BXW6); test: Fluorescence polarisation (FP) competition with NBD-cholesterol, ORP1; assay type: binding; settings: single dose, Dose = 10 µM
T2 construct: ORP1(534-950); host or cells: E. coli BL21(DE3)
T2 sequence (Q9BXW6 534-950): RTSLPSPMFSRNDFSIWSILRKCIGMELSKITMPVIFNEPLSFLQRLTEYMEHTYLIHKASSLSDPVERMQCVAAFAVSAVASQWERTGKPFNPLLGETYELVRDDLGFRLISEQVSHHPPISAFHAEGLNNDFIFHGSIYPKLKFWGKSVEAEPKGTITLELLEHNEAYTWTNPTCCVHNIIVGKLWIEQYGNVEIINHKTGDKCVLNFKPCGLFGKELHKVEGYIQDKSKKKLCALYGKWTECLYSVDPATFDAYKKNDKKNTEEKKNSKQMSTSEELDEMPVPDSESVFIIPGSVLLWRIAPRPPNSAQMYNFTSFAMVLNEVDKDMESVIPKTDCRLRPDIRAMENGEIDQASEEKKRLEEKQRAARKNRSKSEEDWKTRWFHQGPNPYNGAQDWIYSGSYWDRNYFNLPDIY
Source text: as §1, §2, §3, §4, §5, §6, §7, §8

Compound | STARD5 (DSF) ΔTm (STARD5) [°C] | ORP1 (FP) inhibition (ORP1) [%] | ΔTm at 10 µM (STARD5) [°C] | inhibition at 10 µM (ORP1) [%] | pKd (STARD5; apparent Kd, mean of three experiments run in technical duplicates, read-out: STARD5 Kd,app (DSF))
Cc1nc2c(s1)CC[C@@H]1C[C@H](O)CC[C@]21C [Compound 8b] | 0.175 | -2.5 |  |  | 
C[C@]12CC[C@@H](O)C[C@H]1CCc1sc(-c3cccnc3)nc12 [Compound 8c] | 0.15 | 5.8 |  |  | 
COc1ccc(-c2nc3c(s2)CC[C@@H]2C[C@H](O)CC[C@]32C)cc1 [Compound 8d] |  |  | 0.146 | 66.7 | 
C[C@]12CC[C@@H](O)C[C@H]1CCc1sc(-c3ccc(F)cc3)nc12 [Compound 8e] | 0.216 | 31.7 |  |  | 
C[C@]12CC[C@@H](O)C[C@H]1CCc1[nH]c(-c3ccccc3)nc12 [Compound 9] |  |  | 0.168 | -0.8 | 
C[C@]12CC[C@@H](O)C[C@H]1CCc1c2[nH]c2ccccc12 [Compound 10a] | 0.373 | 28.3 |  |  | 
C[C@]12CC[C@@H](O)C[C@H]1CCc1c2[nH]c2ccc(Br)cc12 [Compound 10b] | 0.131 | 21.7 |  |  | 
C[C@]12CC[C@@H](O)C[C@H]1CCc1c2[nH]c2ccc(Cl)cc12 [Compound 10c] | 0.161 | 24.2 |  |  | 
C[C@]12CC[C@@H](O)C[C@H]1CCc1c2[nH]c2ccc(F)cc12 [Compound 10d] | 0.145 | 28.3 |  |  | 
Cc1ccc2[nH]c3c(c2c1)CC[C@@H]1C[C@H](O)CC[C@]31C [Compound 10e] |  |  | 0.2 | 27.5 | 
COc1ccc2[nH]c3c(c2c1)CC[C@@H]1C[C@H](O)CC[C@]31C [Compound 10f] |  |  | 0.159 | 11.7 | 
CC12CCC(O)CC1CCc1c2[nH]c2ccc(C(F)(F)F)cc12 (stereo not shown) [Compound 10g] |  |  | 0.162 | 39.2 | 
C[C@]12CC[C@@H](O)C[C@H]1CCc1c2[nH]c2ccc(I)cc12 [Compound 10h] | 0.241 | 35.8 |  |  | 
C[C@]12CC[C@@H](O)C[C@H]1CCc1c2[nH]c2c(F)cc(Cl)cc12 [Compound 10i] |  |  | 0.421 | 14.2 | 
Cc1cc(C)c2c3c([nH]c2c1)[C@@]1(C)CC[C@@H](O)C[C@H]1CC3 [Compound 10j] |  |  | -0.163 | 11.7 | 
CCOC(=O)c1ccc2[nH]c3c(c2c1)CC[C@@H]1C[C@H](O)CC[C@]31C [Compound 10k] | 0.2 | 10.0 |  |  | 
C[C@]12CC[C@@H](O)C[C@H]1CCC(=O)c1ccccc1NC2=O [Compound 11a] | 0.0733 | -2.5 |  |  | 
C[C@]12CC[C@@H](O)C[C@H]1CCC(=O)c1cc(Br)ccc1NC2=O [Compound 11b] |  |  | 0.3 | -1.7 | 
Cc1ccc2c(c1)C(=O)CC[C@@H]1C[C@H](O)CC[C@]1(C)C(=O)N2 [Compound 11c] |  |  | -0.119 | -8.3 | 
COc1ccc2c(c1)C(=O)CC[C@@H]1C[C@H](O)CC[C@]1(C)C(=O)N2 [Compound 11d] |  |  | 0.0281 | -3.3 | 
C[C@]12CC[C@@H](O)C[C@H]1CCC(=O)c1cc(C(F)(F)F)ccc1NC2=O [Compound 11e] |  |  | 0.115 | -3.3 | 
C[C@]12CC[C@@H](O)C[C@H]1CCC(=O)c1cc(Cl)cc(F)c1NC2=O [Compound 11f] | 0.154 | -6.7 |  |  | 
Cc1cc(C)c2c(c1)NC(=O)[C@@]1(C)CC[C@@H](O)C[C@H]1CCC2=O [Compound 11g] |  |  | 0.141 | -6.7 | 
Cc1ccc2[nH]c3c(c(=O)c2c1)C[C@@H]1C[C@H](O)CC[C@]31C [Compound 12] |  |  | 0.169 | -6.7 | 
Cc1ccc2c(c1)[C@]1(O)CC[C@@H]3C[C@H](O)CC[C@]3(C)C1=N2 [Compound 14a] |  |  | 0.5 | 65 | 
COc1ccc2c(c1)[C@]1(O)CC[C@@H]3C[C@H](O)CC[C@]3(C)C1=N2 [Compound 14b] |  |  | 0.049 | 0 | 
Cc1cc(C)c2c(c1)N=C1[C@@]2(O)CC[C@@H]2C[C@H](O)CC[C@]12C [Compound 14c] |  |  | 0.0425 | 0 | 
C[C@]12CC[C@@H]3C[C@H]1CC[C@@]21C(=Nc2ccccc21)O3 [Compound 15a] |  |  | 1.3 | 10 | < 4.00
CC12CCC3CC1CCC21C(=Nc2ccc(Cl)cc21)O3 (stereo not shown) [Compound 15c] |  |  | 0.56 | 40 | 
C[C@]12CC[C@@H]3C[C@H]1CC[C@@]21C(=Nc2ccc(F)cc21)O3 [Compound 15d] |  |  | 0.6 | 11.7 | 
